Results on 36 compounds are retold here after PubChem BioAssay AID2019 (NMMLSC, 2009).

The assay deals with Cell division control protein 42 homolog (Homo sapiens) (UniProt P60953). Description: inhibition of fluorescent GTP binding to wildtype Cdc42 – biochemical, pyrazoline analogs, multiplex bead flow cytometry, Ki, SAR follow-up (AID 2019). The conditions noted are these: bead-based flow cytometry, Bodipy-FL-GTP binding; Ki calculated from EC50.
Chain of Cell division control protein 42 homolog (Homo sapiens) (P60953 whole entry, looked up): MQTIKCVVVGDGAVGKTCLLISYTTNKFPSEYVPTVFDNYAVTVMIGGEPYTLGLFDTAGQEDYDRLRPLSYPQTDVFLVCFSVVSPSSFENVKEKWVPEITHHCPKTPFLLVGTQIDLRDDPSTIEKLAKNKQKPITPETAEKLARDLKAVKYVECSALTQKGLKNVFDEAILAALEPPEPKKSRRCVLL

For `NS(=O)(=O)c1ccc(N2N=C(c3ccccc3)CC2c2ccc(Cl)cc2)cc1` (stereo unspecified), the Ki (commonly the dissociation constant of the complex between target and ligand, obtained from inhibition or displacement) was 0.58 µM.

Regarding `COc1ccc(C2CC(c3ccc(Br)cc3)=NN2c2ccc(S(N)(=O)=O)cc2)cc1` (stereo unspecified), the Ki was 0.63 µM. With `COc1ccc(C2CC(c3cccc(F)c3)=NN2c2ccc(S(N)(=O)=O)cc2)cc1` (stereo unspecified), the Ki was 0.61 µM. The result for `COc1ccc(C2CC(c3ccccc3OC)=NN2c2ccc(S(N)(=O)=O)cc2)cc1` (stereo unspecified) reads 1.27 µM; that for `NS(=O)(=O)c1ccc(N2N=C(c3ccccc3)CC2c2ccccc2Cl)cc1` (stereo unspecified), 1.53 µM. With `COc1ccc(C2CC(c3cccc(Br)c3)=NN2c2ccc(S(N)(=O)=O)cc2)cc1` (stereo unspecified), the Ki is 0.44 µM. The result for `COc1ccc(C2CC(c3ccsc3)=NN2c2ccc(S(N)(=O)=O)cc2)cc1` (stereo unspecified) reads 1.54 µM. Take `NS(=O)(=O)c1ccc(N2N=C(c3ccc(Cl)cc3)CC2c2ccccc2)cc1` (stereo unspecified): the Ki was 0.7 µM. Consider `COc1ccc(C2CC(c3cccnc3)=NN2c2ccc(S(N)(=O)=O)cc2)cc1` (stereo unspecified), for which the inhibitory constant (Ki) is 2.01 µM.

In the case of `COc1ccc(C2CC(c3ccc(C)cc3)=NN2c2ccc(S(N)(=O)=O)cc2)cc1` (stereo unspecified), the Ki was 0.47 µM.

`COc1ccccc1C1CC(c2ccccc2)=NN1c1ccc(S(N)(=O)=O)cc1` (stereo unspecified): the Ki is 4.75 µM. The result for `COc1ccc(C2CC(c3cccc(C)c3)=NN2c2ccc(S(N)(=O)=O)cc2)cc1` (stereo unspecified) reads 0.8 µM.

Turning to `COc1cccc(C2CC(c3ccccc3)=NN2c2ccc(S(N)(=O)=O)cc2)c1` (stereo unspecified), the Ki was 1.01 µM. In the case of `O=S(=O)(c1ccc(N2N=C(c3ccccc3)CC2c2ccccc2)cc1)C(F)F` (stereo unspecified), the Ki was 0.05 µM.

Turning to `COc1ccc(C2CC(c3ccccc3Br)=NN2c2ccc(S(N)(=O)=O)cc2)cc1` (stereo unspecified), the Ki was 0.71 µM. On to `NS(=O)(=O)c1ccc(N2N=C(c3ccccc3)CC2c2cccc(Br)c2)cc1` (stereo unspecified), for which the Ki was 0.7 µM. With `Cc1cccc(C2CC(c3ccccc3)=NN2c2ccc(S(N)(=O)=O)cc2)c1` (stereo unspecified), the Ki is 1.06 µM. The result for `COc1ccc(C2CC(c3cccs3)=NN2c2ccc(S(N)(=O)=O)cc2)cc1` (stereo unspecified) reads 0.62 µM; that for `COc1ccc(C2=NN(c3ccccc3)C(c3ccccc3C(F)(F)F)C2)cc1` (stereo unspecified), 7.28 µM. Take `COc1ccc(-c2cc(-c3ccccc3)nn2-c2ccc(S(N)(=O)=O)cc2)cc1`: the Ki was 1.07 µM. The result for `COc1ccc(C2CC(c3ccc(N(C)C)cc3)=NN2c2ccc(S(N)(=O)=O)cc2)cc1` (stereo unspecified) reads 0.71 µM; that for `COc1ccc(C2CC(c3ccccc3C)=NN2c2ccc(S(N)(=O)=O)cc2)cc1` (stereo unspecified), 0.87 µM; that for `COc1ccc(C2CC(c3ccccc3Cl)=NN2c2ccc(S(N)(=O)=O)cc2)cc1` (stereo unspecified), 0.55 µM. Consider `COc1ccc(C2CC(c3ccc(Cl)cc3)=NN2c2ccc(S(N)(=O)=O)cc2)cc1` (stereo unspecified), for which the inhibition constant Ki is 0.49 µM. Turning to `COc1ccc(C2CC(c3cccc(Cl)c3)=NN2c2ccc(S(N)(=O)=O)cc2)cc1` (stereo unspecified), the Ki is 0.27 µM. For the compound `COc1ccc(C2CC(c3ccc(F)cc3)=NN2c2ccc(S(N)(=O)=O)cc2)cc1` (stereo unspecified), the Ki is 0.9 µM. Take `COc1ccc(C2CC(c3cccc(C(F)(F)F)c3)=NN2c2ccc(S(N)(=O)=O)cc2)cc1` (stereo unspecified): the Ki was 0.66 µM. Regarding `COc1ccc(C2CC(c3ccccc3F)=NN2c2ccc(S(N)(=O)=O)cc2)cc1` (stereo unspecified), the inhibition constant (Ki) was 0.59 µM. Turning to `COc1ccc(C2=NN(c3ccc(S(N)(=O)=O)cc3)C(c3ccc(OC)cc3)C2)cc1` (stereo unspecified), the Ki was 0.54 µM. As to `Cc1ccc(C2CC(c3ccccc3)=NN2c2ccc(S(N)(=O)=O)cc2)cc1` (stereo unspecified), the Ki was 1.05 µM. On to `COc1ccc(C2CC(c3ccccc3)=NN2c2ccc(S(N)(=O)=O)cc2)cc1OC` (stereo unspecified), for which the Ki is 1.21 µM. For `NS(=O)(=O)c1ccc(N2N=C(c3ccccc3)CC2c2ccc(Br)cc2)cc1` (stereo unspecified), the Ki is 0.23 µM.

Turning to `COc1ccc(C2CC(c3ccc(F)cc3)=NN2c2cccc(F)c2)cc1OC` (stereo unspecified), the Ki was 4.45 µM. The result for `NS(=O)(=O)c1ccc(N2N=C(c3ccccc3)CC2c2cccc(Cl)c2)cc1` (stereo unspecified) reads 0.7 µM. With `COc1ccc(C2CC(c3cccc(OC)c3)=NN2c2ccc(S(N)(=O)=O)cc2)cc1` (stereo unspecified), the Ki is 0.31 µM. Take `Cc1ccccc1C1CC(c2ccccc2)=NN1c1ccc(S(N)(=O)=O)cc1` (stereo unspecified): the Ki is 3.51 µM.
